We go through 20 compounds from patent US20260374754A1, “N-((ISOQUINOLIN-6-YL)METHYL)-1H-PYRAZOLE-4-CARBOXAMIDE DERIVATIVES AS PLASMA KALLIKREIN INHIBITORS FOR THE TREATMENT OF HEREDITARY ANGIODEMA” (Takeda Pharmaceutical Company Limited, priority 2022, published 2026).

Test [1] concerns the target human activated kallikrein enzyme (Homo sapiens, UniProt P03952). The test is described as follows: Inhibition of human activated plasma kallikrein, fluorogenic PFR-AMC substrate, 500 pM enzyme format. The class given is biochemical. Particulars: 500 pM activated kallikrein; 300 μM PFR-AMC; 30 min preincubation; 10 min room temperature; pH 7.5; read-out: Primary Dose Response Assay: Average EC50. Put shortly:
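Using fluorogenic PFR-AMC at 300 μM, cleavage by 500 pM human activated kallikrein ran 10 min at room temperature, read at 460 nm emission (380 nm excitation). Enzyme and compounds were first preincubated 30 min in 20 mM Tris pH 7.5, 150 mM NaCl, 1 mM EDTA, 0.1% PEG-400, 0.1% Triton X-100.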

In another test the target is T1, plasma kallikrein (Homo sapiens, UniProt P03952).
T1 construct: PFR-AMC substrate
T1 sequence (P03952 20-638): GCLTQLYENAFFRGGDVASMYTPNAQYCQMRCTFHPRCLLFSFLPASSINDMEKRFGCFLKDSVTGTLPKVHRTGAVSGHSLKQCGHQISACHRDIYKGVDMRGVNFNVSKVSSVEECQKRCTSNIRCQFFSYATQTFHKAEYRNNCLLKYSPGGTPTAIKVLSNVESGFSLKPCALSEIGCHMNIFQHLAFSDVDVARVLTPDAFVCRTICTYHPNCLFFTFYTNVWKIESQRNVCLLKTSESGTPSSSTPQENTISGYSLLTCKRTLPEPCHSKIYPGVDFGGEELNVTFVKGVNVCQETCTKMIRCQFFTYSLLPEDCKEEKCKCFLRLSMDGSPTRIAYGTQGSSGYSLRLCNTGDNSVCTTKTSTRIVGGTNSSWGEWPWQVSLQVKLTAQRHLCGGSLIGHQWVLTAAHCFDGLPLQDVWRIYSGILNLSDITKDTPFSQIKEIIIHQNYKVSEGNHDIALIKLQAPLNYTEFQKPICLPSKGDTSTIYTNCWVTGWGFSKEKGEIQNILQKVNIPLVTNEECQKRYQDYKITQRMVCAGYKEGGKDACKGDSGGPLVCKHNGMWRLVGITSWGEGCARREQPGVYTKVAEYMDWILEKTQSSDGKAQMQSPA
Kind of test: Neat Human Plasma Assay (Fluorogenic Peptide), contact pathway-activated (FXIIa) plasma. The conditions noted are these: human citrated plasma 78% final; 10 nM human FXIIa; PFR-AMC substrate; 5 minutes; room temperature. Type of test: biochemical. The procedure: To analyze inhibition of plasma kallikrein in an ex vivo setting, the potency of compounds was measure in contact pathway-activated plasma assays. In a fluorogenic peptide substrate assay, test compounds dissolved in DMSO were added to sodium citrate collected human or rat plasma in a 96-well microplate. Alternatively, citrated plasma was collected from rats administered the compounds orally or by IV. 10 nM of human FXIIa (Enzyme Research Laboratories) diluted in PKa buffer (20 mM Tris-HCl, pH 7.5, 150 mM NaCl, 1 mM EDTA, 0.1% PEG-8000, and 0.1% Triton X-100) was added to the plasma, followed by the […] of the profluorescent, synthetic plasma kallikrein substrate PFR-AMC (also diluted in PKa buffer). Final plasma concentration in the reaction was 78%. Fluorescence was immediately monitored by excitation/emission wavelengths of 360 nm/480 nm respectively over a period of 5 minutes in a microplate reader. The resulting linear increase in fluorescence emission (reflecting PKa proteolysis of PFR-AMC substrate) was fit to extract a proteolytic rate (fluorescent units over time), and this rate was subsequently plotted against compound inhibitor concentration. Resulting plots were fit to a standard 4-parameter IC50/IC90 equation to determine min/max values, IC50/90, and slope. All experimental steps were performed at room temperature.

The EC50 is the concentration needed to bring the measured effect to its halfway point. A word on the IC90: it is the concentration needed for an effect of 90%. A higher IC90 goes with weaker potency.

Where a name gives a salt, the structure may show the parent alone. Bounds are passed on as bounds.

Chain of human activated kallikrein enzyme (P03952 391-638 limits assumed): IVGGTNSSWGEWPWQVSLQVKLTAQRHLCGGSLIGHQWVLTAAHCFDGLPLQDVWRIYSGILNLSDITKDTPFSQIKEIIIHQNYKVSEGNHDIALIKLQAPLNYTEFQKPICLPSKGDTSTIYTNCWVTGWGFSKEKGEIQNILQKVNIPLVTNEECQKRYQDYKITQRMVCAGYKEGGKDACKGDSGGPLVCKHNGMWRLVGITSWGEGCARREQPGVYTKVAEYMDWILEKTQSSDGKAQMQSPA
Chain of human activated kallikrein enzyme (P03952 20-390 partner limits assumed): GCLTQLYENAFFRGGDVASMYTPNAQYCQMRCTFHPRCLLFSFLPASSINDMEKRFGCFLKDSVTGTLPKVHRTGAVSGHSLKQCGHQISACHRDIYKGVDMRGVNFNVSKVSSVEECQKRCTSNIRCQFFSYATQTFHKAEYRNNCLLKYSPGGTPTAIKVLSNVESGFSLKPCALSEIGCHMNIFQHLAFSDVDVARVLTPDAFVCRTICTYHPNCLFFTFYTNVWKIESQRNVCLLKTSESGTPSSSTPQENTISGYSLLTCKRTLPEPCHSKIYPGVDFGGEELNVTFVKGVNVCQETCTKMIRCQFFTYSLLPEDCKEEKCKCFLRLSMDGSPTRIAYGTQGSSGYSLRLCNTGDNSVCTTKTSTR

In the case of `Cc1cnc2ccc(COc3cnnc(NCc4c(C)cc5c(N)nccc5c4C)c3)cc2c1` [Example 416, 5,7-dimethyl-6-(((5-((3-methylquinolin-6-yl)methoxy)pyridazin-3-yl)amino)methyl)isoquinolin-1-amine], in test [1], the EC50 is < 1 nM. This compound also yielded an IC90 against plasma kallikrein of 1000 to 5000 nM.

Regarding `Cc1cc2c(N)nccc2c(C)c1CNc1cc(NCc2cc3cc(C4CC4)ccn3n2)ncn1` [Example 244], in test [1], the EC50 is < 1 nM. The compound also came in with an IC90 on plasma kallikrein of 1000 to 5000 nM.

Consider `Cc1cc2c(N)nccc2c(C)c1CNc1cc(OCc2ccc3ncc(C4CC4)cc3c2)cnn1` [Example 422, 6-(((5-((3-cyclopropylquinolin-6-yl)methoxy)pyridazin-3-yl)amino)methyl)-5,7-dimethylisoquinolin-1-amine], for which, in test [1], the EC50 was < 1 nM. On plasma kallikrein, this compound gave an IC90 of 1000 to 5000 nM.

Take `Cc1cc2c(N)nccc2c(C)c1CNc1cc(OCc2ccc3ncc(C4CC4)cc3c2)ncn1` [Example 386, 6-(((6-((3-cyclopropylquinolin-6-yl)methoxy)pyrimidin-4-yl)amino)methyl)-5,7-dimethylisoquinolin-1-amine]: the EC50 in test [1] is 1 to 10 nM. For the same compound, on plasma kallikrein, the IC90 was > 5000 nM.

Regarding `Cc1cc2c(N)nccc2c(C)c1CNc1cc(OCc2cc(C#N)c3ncc(Cl)cc3c2)ncn1` [Example 398, 6-(((6-(((1-amino-5,7-dimethylisoquinolin-6-yl)methyl)amino)pyrimidin-4-yl)oxy)methyl)-3-chloroquinoline-8-carbonitrile], the EC50 in test [1] lay in the range of 1 to 10 nM. In addition, the IC90 at plasma kallikrein is > 5000 nM.

On to `Cc1cc2c(N)nccc2c(C)c1CNc1cc2c(ccn2Cc2ccc(Cn3cccn3)cc2)nn1` [Example I-457, 6-(((5-(4-((1H-pyrazol-1-yl)methyl)benzyl)-5H-pyrrolo[3,2-c]pyridazin-3-yl)amino)methyl)-5,7-dimethylisoquinolin-1-amine], for which the concentration for a half-maximal effect (EC50) in test [1] was < 1 nM. Further, the IC90 at plasma kallikrein was ≤ 1000 nM.

In the case of `Cc1cc2c(N)nccc2c(C)c1CNc1cc(OCc2ccc3ncc(Cl)cc3c2)ncn1` [Example 373, 6-(((6-((3-chloroquinolin-6-yl)methoxy)pyrimidin-4-yl)amino)methyl)-5,7-dimethylisoquinolin-1-amine formic acid salt], the EC50 in test [1] was in the range of 1 to 10 nM. In addition, at plasma kallikrein, the IC90 was > 5000 nM.

With `Cc1cc2c(N)nccc2c(C)c1CNc1cc(NCc2ccc(Cn3cccn3)cc2)c(C(F)(F)F)nn1` [Example 451, N^5-(4-((1H-pyrazol-1-yl)methyl)benzyl)-N^3-((1-amino-5,7-dimethylisoquinolin-6-yl)methyl)-6-(trifluoromethyl)pyridazine-3,5-diamine], the EC50 in test [1] was < 1 nM. The IC90 at plasma kallikrein is 1000 to 5000 nM.

On to `Cc1cc2c(N)nccc2c(C)c1CNc1cc2c(ccn2Cc2cc3cc(C4CC4)cnc3s2)cn1` [Example 283, 6-(((1-((5-cyclopropylthieno[2,3-b]pyridin-2-yl)methyl)-1H-pyrrolo[3,2-c]pyridin-6-yl)amino)methyl)-5,7-dimethylisoquinolin-1-amine], for which the EC50 in test [1] lay within 1 to 10 nM. At plasma kallikrein, this compound yielded an IC90 of 1000 to 5000 nM.

As to `Cc1cc2c(N)nccc2c(C)c1CNc1nccc2nc(Cc3cn4cc(C5CC5)ccc4n3)[nH]c12` [Example 500, 6-(((2-((6-cyclopropylimidazo[1,2-a]pyridin-2-yl)methyl)-3H-imidazo[4,5-c]pyridin-4-yl)amino)methyl)-5,7-dimethylisoquinolin-1-amine], the EC50 in test [1] was < 1 nM. For the same compound, at plasma kallikrein, the IC90 is > 5000 nM.

In the case of `Cc1cc2c(N)nccc2c(C)c1CNc1cc2c(cn1)ncn2Cc1cc2cc(C3CC3)cnc2s1` [Example 504, 6-(((1-((5-cyclopropylthieno[2,3-b]pyridin-2-yl)methyl)-1H-imidazo[4,5-c]pyridin-6-yl)amino)methyl)-5,7-dimethylisoquinolin-1-amine], the EC50 in test [1] was < 1 nM. On plasma kallikrein, the IC90 is ≤ 1000 nM.

As to `Cc1cc2c(N)nccc2c(C)c1CNc1cc(OCc2nc3ncc(C4CC4)cn3n2)ncn1` [Example 384, 6-(((6-((6-cyclopropyl-[1,2,4]triazolo[1,5-a]pyrimidin-2-yl)methoxy)pyrimidin-4-yl)amino)methyl)-5,7-dimethylisoquinolin-1-amine], the EC50 in test [1] was in the range of 1 to 10 nM. Besides, at plasma kallikrein, the IC90 fell in the range of 1000 to 5000 nM.

As to `Cc1cc2c(N)nccc2c(C)c1CNc1cc(OCc2nc3ccc(C4CC4)cn3n2)ncn1` [Example 388, 6-(((6-((6-cyclopropyl-[1,2,4]triazolo[1,5-a]pyridin-2-yl)methoxy)pyrimidin-4-yl)amino)methyl)-5,7-dimethylisoquinolin-1-amine], in test [1], the EC50 was 1 to 10 nM. Besides, at plasma kallikrein, the IC90 was > 5000 nM.

As to `Cc1cc2c(N)nccc2c(C)c1CNc1cc(OCc2cc(C(N)=O)c3ncc(Cl)cc3c2)ncn1` [Example 401, 6-(((6-(((1-amino-5,7-dimethylisoquinolin-6-yl)methyl)amino)pyrimidin-4-yl)oxy)methyl)-3-chloroquinoline-8-carboxamide], the half-maximal effective concentration (EC50) in test [1] fell in the range of 1 to 10 nM. For the same compound, the IC90 against plasma kallikrein lay within 1000 to 5000 nM.

Turning to `Cc1cc2c(N)nccc2c(C)c1CNC(=O)c1cnn(Cc2cn3cc(Cl)ccc3n2)c1` [Example 101, N-((1-amino-5,7-dimethylisoquinolin-6-yl)methyl)-1-((6-chloroimidazo[1,2-a]pyridin-2-yl)methyl)-1H-pyrazole-4-carboxamide], in test [1], the EC50 was < 1 nM. The IC90 against plasma kallikrein was ≤ 1000 nM.

On to `Cc1cc2c(N)nccc2c(C)c1CNc1cc(OCc2cn3cc(C4CC4)cc(C4(O)COC4)c3n2)ncn1` [Example 250, 3-(2-(((6-(((1-amino-5,7-dimethylisoquinolin-6-yl)methyl)amino)pyrimidin-4-yl)oxy)methyl)-6-cyclopropylimidazo[1,2-a]pyridin-8-yl)oxetan-3-ol], for which the EC50 in test [1] is < 1 nM. For the same compound, at plasma kallikrein, the IC90 is ≤ 1000 nM.

Take `Cc1cc2c(N)nccc2c(C)c1CNc1cc(N2C[C@@H](O)C[C@@H]2c2cn3cc(C4CC4)ccc3n2)ncn1` [Example 513, (3S,5R)-1-(6-(((1-amino-5,7-dimethylisoquinolin-6-yl)methyl)amino)pyrimidin-4-yl)-5-(6-cyclopropylimidazo[1,2-a]pyridin-2-yl)pyrrolidin-3-ol]: the EC50 in test [1] was < 1 nM. Moreover, at plasma kallikrein, the IC90 was ≤ 1000 nM.

As to `Cc1cc2c(N)nccc2c(C)c1CNc1cc(OCc2cc3cc(C4CC4)cc(CC(C)(C)C(N)=O)n3n2)ncn1` [Example 509, 3-(2-(((6-(((1-amino-5,7-dimethylisoquinolin-6-yl)methyl)amino)pyrimidin-4-yl)oxy)methyl)-5-cyclopropylpyrazolo[1,5-a]pyridin-7-yl)-2,2-dimethylpropanamide], in test [1], the EC50 was < 1 nM. Moreover, the IC90 on plasma kallikrein lay in the range of 1000 to 5000 nM.

For the compound `Cc1cc2c(N)nccc2c(C)c1CNc1cc(Cc2cn3cc(C4CC4)ccc3n2)ncn1` [Example 403, 6-(((6-((6-cyclopropylimidazo[1,2-a]pyridin-2-yl)methyl)pyrimidin-4-yl)amino)methyl)-5,7-dimethylisoquinolin-1-amine], the EC50 in test [1] was < 1 nM. The IC90 on plasma kallikrein was in the range of 1000 to 5000 nM.

For `Cc1cc2c(N)nccc2c(C)c1CNC(=O)c1cnn(Cc2ccc(CC(=O)N3CC4CC4C3)cc2)c1` (stereo not shown) [Example 222, 1-(4-(2-(3-azabicyclo[3.1.0]hexan-3-yl)-2-oxoethyl)benzyl)-N-((1-amino-5,7-dimethylisoquinolin-6-yl)methyl)-1H-pyrazole-4-carboxamide], the EC50 in test [1] was < 1 nM. Besides, the IC90 against plasma kallikrein lay within 1000 to 5000 nM.
